These compounds were tested against T1, queuine-tRNA ribosyltransferase enzyme complex (hQTRT1:hQTRT2) (Homo sapiens, UniProt Q9BXR0) (assay: [8-14C] guanine displacement assay (tRNA*)). Details: 50 μM compound, 100 nM hQTRT1:hQTRT2, 30 mins at 37° C.; background ≤2%; ≥5% counts as positive substrate for TGT.
T1 construct: polyhistidine tag (N); made in house; host or cells: E. coli BL21(DE3) tgt::Kmr
Type: biochemical
Procedure: Compounds capable of acting as a queuine-tRNA ribosyltransferase enzyme complex substrate may be identified by use of a displacement assay as described below:
Production of [8-^14C] Guanine Labeled tRNA (tRNA*)
Before adding the 8-[^14C] guanine solution to the reaction the solution was neutralised with an equal volume (vol/vol) 0.01 M NaOH, as the [8-^14C] Guanine is supplied in 0.01 M HCl aqueous solution. In vitro synthesised human tyrosyl tRNA was prepared by T7 transcription in ultrapure nuclease-free water as described previously (Alqasem et al., 2020). Recombinant human QTRT1 enzyme containing an N-terminalpolyhistidine tag and human QTRT2 containing a C-terminal TEV-Strep-Tag®II tag were produced in BL21(DE3) tgt::Kmr cells as described previously (Alqasem et al., 2020).
The reaction was incubated for 1 hour at 37° C. […] The tRNA* pellet was resuspended in 30 μL nuclease-free water and the concentration measured spectrophotometrically at A260. […]
After 30 mins the reactions were quenched by mixing with 2.5 ml ice-cold 10% trichloroacetic acid (TCA) and placed on ice for one hour to precipitate the tRNA. […] The vacuum manifold was disassembled, the filters recovered and dried again at room temperature before being placed in scintillation vials containing 10 ml of Ecoscint A and radioactivity levels measured by scintillation counting. […]

T1 sequence (Q9BXR0 whole entry): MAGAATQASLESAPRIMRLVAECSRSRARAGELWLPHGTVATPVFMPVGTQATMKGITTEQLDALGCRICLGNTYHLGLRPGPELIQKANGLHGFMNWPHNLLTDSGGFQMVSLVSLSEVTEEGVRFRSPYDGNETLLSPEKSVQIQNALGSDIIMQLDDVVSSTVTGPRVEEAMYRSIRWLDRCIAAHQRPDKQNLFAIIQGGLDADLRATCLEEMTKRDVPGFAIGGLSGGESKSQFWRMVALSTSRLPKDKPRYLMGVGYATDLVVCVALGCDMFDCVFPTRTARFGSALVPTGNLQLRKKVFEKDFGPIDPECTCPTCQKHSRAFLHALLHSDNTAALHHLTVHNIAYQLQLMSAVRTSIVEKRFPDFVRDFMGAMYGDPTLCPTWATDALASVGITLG
T1 sequence (Q9H974 whole entry partner): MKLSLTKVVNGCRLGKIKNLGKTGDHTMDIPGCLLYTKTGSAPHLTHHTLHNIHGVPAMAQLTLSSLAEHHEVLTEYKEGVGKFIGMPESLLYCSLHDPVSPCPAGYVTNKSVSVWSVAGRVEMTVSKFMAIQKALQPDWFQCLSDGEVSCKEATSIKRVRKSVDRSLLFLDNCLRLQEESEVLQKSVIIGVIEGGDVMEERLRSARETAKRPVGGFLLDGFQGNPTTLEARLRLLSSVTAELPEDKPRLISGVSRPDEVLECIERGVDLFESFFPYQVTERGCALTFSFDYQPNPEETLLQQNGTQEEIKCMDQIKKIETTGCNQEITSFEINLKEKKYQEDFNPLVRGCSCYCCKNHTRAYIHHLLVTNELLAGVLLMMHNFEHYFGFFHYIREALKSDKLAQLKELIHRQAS

Row | displacement of the [14C] guanine [%] | SMILES
1 | > 98 | Nc1nc2[nH]cc(CN[C@H]3C=C[C@H](O)[C@@H]3O)c2c(=O)[nH]1 [queuine base, queuine]

Each compound was assayed on RA synovial primary fibroblasts (RASFCs) (assay: Synovial fibroblast assay, IL-6 ELISA on TNF-treated RASFC supernatants). Details: 200 μm compound, TNF 10 ng/ml, supernatants at 72 hr, n=3 RASFCs, DMSO vehicle = 100%.
Type: cell-based, human
Procedure: To assess the compounds in human rheumatoid arthritis samples the following protocol was employed:
Isolation of Primary Fibroblasts (RASFCs): RA synovial biopsies were digested with 1 mg/ml collagenase type 1 (Worthington Biochemical, Freehold, NJ, USA) in RPMI-1640 (Gibco-BRL, Paisley, UK) for 4 hr at 37° C. in humidified air with 5% CO2. Dissociated cells were grown to confluence in RPMI 1640, 10% FCS (Gibco-BRL), 10 ml of 1 mmol/l HEPES (Gibco-BRL), penicillin (100 units/ml; Bioscience), streptomycin (100 units/ml; Bioscience) and fungizone (0.25 μg/ml; Bioscience) before passaging. Cells were used between passages 3-8.
Compounds (200 μm) were Tested on n=3 RASFCs
RASFCs were grown to 80% confluency in 48 well plates. RASFCs were treated with TNF (10 ng/ml) in the presence of 200 μm of each compound. Media was replaced after 24 h and fresh media and compound was added. Cell supernatants were collected at 72 hr time point. DMSO treated cells were used as a vehicle control (Red dotted line represents DMSO control). IL-6 ELISA: Levels of pro-inflammatory cytokine IL6 were measured in cultured RASFC supernatants by specific ELISA (R&D systems, UK) according to manufacturer's conditions.
This assay measures the production of IL-6 as an indication of immune system activation: the lower the value the better from the point of view of alleviating RA symptoms. All compounds of the invention show an effect compared to the DMSO vehicle that represents no treatment. […]

Row | SMILES | Level of IL6 expression compared to vehicle
2 | Cl.Nc1nc2[nH]cc(CNCCNc3ccccc3)c2c(=O)[nH]1 [Example 5, N-((2-amino-4-oxo-4,7-dihydro-3H-pyrrolo[2,3-d]pyrimidin-5-yl)methyl)-2-(phenylamino)ethan-1-aminium chloride] | Reduction to 48%
3 | Cl.Nc1nc2[nH]cc(CNCCC(=O)c3ccccc3)c2c(=O)[nH]1 [Example 7, N-((2-amino-4-oxo-4,7-dihydro-3H-pyrrolo[2,3-d]pyrimidin-5-yl)methyl)-3-oxo-3-phenylpropan-1-ammonium chloride] | Reduction to 32%
4 | C[C@@H]1CCN(C(=O)CC#N)C[C@@H]1N(C)c1ncnc2[nH]ccc12 [Positive control (Tofacitinib), Tofacitinib, reference compound] | Reduction to 57%
5 | Cl.Nc1nc2[nH]cc(CNCC[C@@H](O)c3ccccc3)c2c(=O)[nH]1 [Example 12, (R)-N-((2-amino-4-oxo-4,7-dihydro-3H-pyrrolo[2,3-d]pyrimidin-5-yl)methyl)-3-hydroxy-3-phenylpropan-1-aminium chloride] | Reduction to 55%
6 | Cl.Nc1nc2[nH]cc(CNCC[C@H](O)c3ccccc3)c2c(=O)[nH]1 [Example 13, (S)-N-((2-amino-4-oxo-4,7-dihydro-3H-pyrrolo[2,3-d]pyrimidin-5-yl)methyl)-3-hydroxy-3-phenylpropan-1-aminium chloride] | Reduction to 67%
7 | Cl.Nc1nc2[nH]cc(CNCCC(c3ccccc3)c3ccccc3)c2c(=O)[nH]1 [Example 10, N-((2-amino-4-oxo-4,7-dihydro-3H-pyrrolo[2,3-d]pyrimidin-5-yl)methyl)-3,3-diphenylpropan-1-ammonium chloride] | Reduction to 56%
8 | CC(C)(CCNCc1c[nH]c2nc(N)[nH]c(=O)c12)c1ccccc1.Cl [Example 1, N-((2-amino-4-oxo-4,7-dihydro-3H-pyrrolo[2,3-d]pyrimidin-5-yl)methyl)-3-methyl-3-phenylbutan-1-ammonium chloride] | Reduction to 37%
